Values quoted from earlier work, collected in patent publication EP2361606A2, “Oral and tooth care and cleaning agents with ethyl lauroyl arginate” (Henkel AG & Co. KGaA, priority 2010, dated 2011).
Read-outs that look alike come from different tables or passages of the source.

[1] = in water, 20°C, bound that defines the group of not soluble / soluble zinc salts
[2] = in water, temperature not given, bound that defines the group of soluble inorganic zinc salts

Zinkacetat
Löslichkeit [1]: > 100 mg/L

Zinkacetat-Dihydrat
Löslichkeit (20°C): 430 g/I (20°C)

Zinkbenzoat
Löslichkeit [1]: > 100 mg/L

Zinkbromid
Löslichkeit (25°C): 820 g/I (25°C) | Löslichkeit [2]: > 100 mg/L

Zinkchlorid
Löslichkeit (25°C): 4320 g/I (25°C) | Löslichkeit [2]: > 100 mg/L

Zinkcitrat
Löslichkeit [1]: < 100 mg/L

Zinkformiat
Löslichkeit [1]: > 100 mg/L

Zinkgluconat
Löslichkeit (20°C): 100 g/I (20°C) | Löslichkeit [1]: > 100 mg/L

Zinkhydroxycarbonat
Löslichkeit (result in words, 20°C): Fast unlöslich (20°C)

Zinkiodid
Löslichkeit (20°C): 4500 g/I (20°C) | Löslichkeit [2]: > 100 mg/L

Zinklactat
Löslichkeit [1]: > 100 mg/L

Zinknitrat
Löslichkeit [2]: > 100 mg/L

Zinknitrat Hexahydrat
Löslichkeit (20°C): 1843 g/I (20°C)

Zinknitrat-Tetrahydrat
Löslichkeit (result in words, 20°C): Leicht löslich (20°C)

Zinkoleat
Löslichkeit [1]: < 100 mg/L

Zinkoxalat
Löslichkeit [1]: < 100 mg/L

Zinkoxid
Löslichkeit [1]: < 100 mg/L | Löslichkeit (result in words, temperature not given): Unlöslich

Zinksalz der p-Toluolsulfonsäure
Löslichkeit [1]: > 100 mg/L

Zinkstearat
Löslichkeit (20°C): 0,9 mg/I (20°C) | Löslichkeit [1]: < 100 mg/L

Zinksulfat
Löslichkeit [2]: > 100 mg/L

Zinksulfat-Heptahydat
Löslichkeit (20°C): 960 g/I (20°C)

Zinksulfat-Monohydrat
Löslichkeit (20°C): ∼350 g/I (20°C)

Zinktartrat
Löslichkeit [1]: < 100 mg/L

Zinkvalerat
Löslichkeit [1]: > 100 mg/L

Zinnlaureat
Löslichkeit [1]: < 100 mg/L
